We go through four compounds from publication PMC4404333, “Identification of Selective Inhibitors of the Plasmodium falciparum Hexose Transporter PfHT by Screening Focused Libraries of Anti-Malarial Compounds” (PLoS ONE, 2015).

In brackets after ≈: the same amount, converted by molar mass. Where only a bound is given, the exact number is not on record here.

In general, EC50 refers to the concentration at which the effect is half-maximal. Low values mean higher potency in that assay, high ones lower potency in that assay. The CLint scaled is a measure of how fast metabolising enzymes remove a compound, apart from limits set by blood flow. For orientation: solubility means the concentration that dissolves in the medium under given conditions. The low end stands for little dissolved substance, the high end for much dissolved substance.

Series [1] concerns BJ cell line (human foreskin fibroblasts). Kind of series: Mammalian cell drug susceptibility assay (Cell Titer Glo, 72 h). The class given is cell-based. As for the experimental part:
The BJ cell line (human foreskin fibroblasts), which express GLUT1 [26], was purchased from the ATTC and cultured according to recommendations. 1000 exponentially growing cells were plated per well (25 μL) in white polystyrene flat bottom sterile 384-well tissue culture treated plates (Corning), and incubated overnight at 37°C in a humidified 5% CO2 incubator. DMSO inhibitor stock solutions were pin-transferred (V&P Scientific) the following day. Plates were placed back in the incubator for 72 h incubation and equilibrated at room temperature for 20 min before addition of 25 μL Cell Titer Glo (Promega) to each well. Plates were shaken on an orbital shaker for 2 min at 500 rpm. Luminescence was read after 15 min on an Envision plate reader (Perkin Elmer). EC50 values were calculated with a custom program (RISE, Robust Investigation of Screening Experiments) using a four-parameter logistic equation.
A general note: In ATP-based viability assays light output follows the ATP content of the culture.

The nature of series [2]: Liver microsomes stability assay. The class given is in vitro ADME, mouse. Conditions: both sexes, CD-1, pH 7.4; for CLint scaled at 9.8 μM: intrinsic clearance calculated from in vitro t1/2, mouse liver microsomes; for half-life at 9.8 μM: mouse liver microsomes, read-out: Mouse Metabolic Stability t1/2 (converted). As for the experimental part:
The microsomal stability assay was carried out as described. […] Each test compound (2.2 μL of 10 mM DMSO solution) was added directly to 1.79 mL of mouse liver microsomal solution and 90 μL was transferred to wells in 96-well plates (0, 0.25, 0.5, 1, 2, and 4 h time points each in triplicate). The NADPH regenerating agent was prepared by mixing 0.113 mL of NADPH regenerating agent solutions A, 0.023 mL of solution B and 0.315 mL of 0.1 M potassium phosphate buffer (pH 7.4) for each tested compound. To each well of the 96-well plate, 22.5 μL of the NADPH regenerating agent was added to initiate the reaction, and the plate was incubated at 37°C for each time point (0, 0.25, 0.5, 1, 2, and 4 h time points each in triplicate). The reaction was quenched by adding 225 μL of cold acetonitrile containing warfarin (4 μg/mL) as internal control to each well. All of the plates were centrifuged at 3220 g for 20 min and the supernatants (100 μL) were transferred to another 96-well plate for analysis on UPLC—MS (Waters Acquity UPLC linked to Waters Acquity Photodiode Array Detector and Waters Acquity Single Quadrupole Mass Detector) on an Acquity UPLC BEH C18 1.7 μm (2.1x50 mm) column by running 90–5% gradient for water (0.1% formic acid) and acetonitrile (0.1% formic acid) in 2 minutes. The area under the single ion recording (SIR) channel for the test compound divided by the area under the SIR for internal control at 0 time concentration was considered as 100% to calculate remaining concentration at each time point. The terminal phase rate constant (ke) was estimated by linear regression of logarithmic transformed concentration versus time, where ke = slope x(-ln10). The half-life t1/2 was calculated as ln2/ke.

Series [3] can be described thus: Parallel artificial membrane permeability assay (PAMPA). Conditions: for Permeation: pH 7.4; for Retention: retention in artificial membrane. As for the experimental part: A parallel artificial membrane permeability assay (PAMPA) was conducted on a Biomek FX lab automation workstation (Beckman Coulter, Inc.) with PAMPA evolution 96 command software (pION Inc.) as follows: 3 μL of 10 mM test compound stock was mixed with 600 μL of PBS (pH 7.4) to make diluted test compound. Then 150 μL of diluted test compound was transferred to a UV plate (pION Inc.), and the UV spectrum was read as the reference plate. The membrane on a preloaded PAMPA sandwich (pION Inc.) was painted with 4 μL of GIT lipid (pION Inc.). The acceptor chamber was then filled with 200 μL of acceptor solution buffer (pION Inc.), and the donor chamber was filled with 180 μL of diluted test compound. The PAMPA sandwich was assembled, placed on the Gut-Box controlled environment chamber and stirred for 30 min. The aqueous boundary layer was set to 40 μm for stirring. The UV spectrum (250–500 nm) of the donor and the acceptor were read. The permeability coefficient was calculated using PAMPA Evolution 96 Command software (pION Inc.) based on the AUC of the reference plate, the donor plate, and the acceptor plate. All compounds were tested in triplicate.
(PAMPA measures passive passage across an artificial lipid membrane.)

Another series in a line: Solubility assay. The class given is physicochemical. Particulars: PBS buffer, aqueous buffer, kinetic from dmso stock, PBS pH 7.4, room temperature. As for the experimental part:
Next, 5 μL of this reference stock plate was mixed with 70 μL of 1-propanol and 75 μL of PBS (pH 7.4) to make the reference plate, and the UV spectrum (250–500 nm) of the reference plate was read. Then, 6 μL of 10 mM test compound stock was added to 600 μL of PBS, pH 7.4, in a 96-well storage plate and mixed. The storage plate was sealed and incubated at room temperature for 18 h. The suspension was then filtered through a 96-well filter plate (pION Inc.). Next, 75 μL of filtrate was mixed with 75 μL of 1-propanol to make the sample plate, and the UV spectrum of the sample plate was read. Calculations were done using μSOL Evolution software based on the area under the curve (AUC) of the UV spectrum of the sample plate and the reference plate. All compounds were tested in triplicate.

For the compound `COc1cc(Nc2ccc3cc(S(=O)(=O)N4CCCCC4C)ccc3n2)cc(OC)c1OC` (centres unmarked) [Compound 1], the EC50 in series [1] is > 23 µM. Further, in series [2], the CLint scaled at 9.8 μM is 213 mL/min/kg and the half-life at 9.8 μM is 16.2 min. Besides, in series [3], the Permeation was 1057 ± 69 10^-6 cm/s and the Retention came out at 70 ± 2.0%. For the same compound, the solubility at 18 h in “Solubility assay” was 0.5 ± 0.4 µM (≈ 0.236 µg/mL).
For `CC1CCCCN1S(=O)(=O)c1ccc2nc(Nc3ccccc3)ccc2c1` (centres unmarked) [Compound 10], the EC50 in series [1] was > 25 µM. Besides, in series [2], the CLint scaled at 9.8 μM was 438 mL/min/kg and the half-life at 9.8 μM was 7.8 min. Also, in series [3], the Permeation is on record as 534 ± 25 10^-6 cm/s and the Retention is listed as 80 ± 12%. In the series “Solubility assay”, this compound showed a solubility at 18 h of 0.4 µM (≈ 0.153 µg/mL).
In the case of `CC1CCCCN1S(=O)(=O)c1ccc2nc(Nc3ccc(C#N)cc3)ccc2c1` (centres unmarked) [Compound 12], in series [1], the EC50 was > 26 µM. In series [2], the CLint scaled at 9.8 μM was 178 mL/min/kg and the half-life at 9.8 μM was 19.2 min. Moreover, in series [3], the Permeation stood at 570 ND 10^-6 cm/s and the Retention worked out at 93 ± 3.8%.
With `CC1CCCCN1S(=O)(=O)c1ccc2nc(Nc3cccc(C#N)c3)ccc2c1` (centres unmarked) [Compound 13], in series [1], the concentration for a half-maximal effect (EC50) is > 25 µM. Further, in series [2], the CLint scaled at 9.8 μM is 680 mL/min/kg and the half-life at 9.8 μM is 4.8 min. Further, in series [3], the Permeation is 582 ± 205 10^-6 cm/s and the Retention worked out at 93 ± 0.5%. This compound also registered a solubility at 18 h in “Solubility assay” of 0.9 ± 1.2 µM (≈ 0.366 µg/mL).
